Assay results as given in US7741361B2, “Glucocorticoid mimetics, methods of making them, pharmaceutical compositions, and uses thereof” (Boehringer Ingelheim Pharmaceuticals, Inc., priority 2004, dated 2010).

Test system: glucocorticoid receptor
Assay: Glucocorticoid receptor cell assays (agonist activity in one or more of the above assays)
Assay type: cell-based
Conditions: assay not specified
Experimental: B. Glucocorticoid Receptor Cell Assays
1. Induction of Aromatase in Fibroblasts (Cell Assay for Transactivation)
Dexamethasone, a synthetic ligand to the glucocorticoid receptor (GR), induces expression of aromatase in human foreskin fibroblast cells. The activity of aromatase is measured by the conversion of testosterone to estradiol in culture media.
Human foreskin fibroblast cells (ATCC Cat. No. CRL-2429, designation CCD112SK) are plated on 96 well plates at 50,000 cells per well 5 days before use, in Iscove's Modified Dulbecco's Media (GibcoBRL Life Technologies Cat No. 12440-053) supplemented with 10% charcoal filtered FBS (Clonetech Cat No. SH30068) and Gentamycin (GibcoBRL Life Technologies Cat. No. 15710-064). On the day of the experiment, the media in the wells is replaced with fresh media. Cells are treated with test compounds to final concentrations of 10^−5 M to 10^−8 M, and testosterone to a final concentration of 300 ng/mL. Each well has a total volume of 100 μL. Samples are made in duplicates. Control wells include: (a) wells that receive testosterone only, and (b) wells that receive testosterone plus 2 μM of dexamethasone to provide maximum induction of aromatase. Plates are incubated at 37° C. overnight (15 to 18 hours), and supernatants are harvested at the end of incubation. Estradiol in the supernatant is measured using ELISA kits for estradiol (made by ALPCO, obtained from American Laboratory Products Cat. No. 020-DR-2693) according to the manufacture's instruction. The amount of estradiol is inversely proportional to the ELISA signals in each well. The extent of aromatase induction by test compounds is expressed as a relative percentage to dexamethasone. EC50 values of test compounds are derived by non-linear curve fitting.
2. Inhibition of IL-6 Production in Fibroblasts (Cell Assay for Transrepression)
Human foreskin fibroblast cells produce IL-6 in response to stimulation by pro-inflammatory cytokine IL-1.
Human foreskin fibroblast cells (ATCC Cat. No. CRL-2429) are plated on 96 well plates at 5,000 cells per well the day before use, in Iscove's Modified Dulbecco's Media (GibcoBRL Life Technologies Cat. No. 12440-053) supplemented with 10% charcoal filtered FBS (Clonetech Cat. No. SH30068) and Gentamycin (GibcoBRL Life Technologies Cat. No. 15710-064). On the next day, media in the wells is replaced with fresh media. […] IL-6 levels in the supernatants are determined by the ELISA kits for IL-6 (MedSystems Diagnostics GmbH, Vienna, Austria, Cat. No. BMS213TEN) according to manufacture's instructions. […]
Evaluation of agonist or antagonist activity of compounds binding to the glucocorticoid receptor may be determined by any of the assays. […]

SMILES	activity as an agonist of the glucocorticoid receptor function
Cc1cc(C)c(S(=O)(=O)NC(Cc2c[nH]c3ccccc23)C(F)(F)F)c(C)c1 (stereo not shown) [2,4,6-Trimethyl-N-[2,2,2-trifluoro-1-(1H-indol-3-ylmethyl)ethyl]benzenesulfonamide]	activity as an agonist
Cc1cc(C)c(S(=O)(=O)NC(Cc2c[nH]c3ccc(C)cc23)C(F)(F)F)c(C)c1 (stereo not shown) [2,4,6-Trimethyl-N-[2,2,2-trifluoro-1-(5-methyl-1H-indol-3-ylmethyl)ethyl]benzenesulfonamide]	activity as an agonist
Nc1cc(Cl)cc(Cl)c1S(=O)(=O)NC(Cc1c[nH]c2ccccc12)C(F)(F)F (stereo not shown) [2-Amino-4,6-dichloro-N-[2,2,2-trifluoro-1-(1H-indol-3-ylmethyl)ethyl]benzenesulfonamide]	activity as an agonist
Cc1ccc2[nH]cc(CC(NS(=O)(=O)c3c(N)cc(Cl)cc3Cl)C(F)(F)F)c2c1 (stereo not shown) [2-Amino-4,6-dichloro-N-[2,2,2-trifluoro-1-(5-methyl-1H-indol-3-ylmethyl)ethyl]benzenesulfonamide]	activity as an agonist
